{"source": "patent US20180369118A1", "about": "“METHODS FOR SPORE REMOVAL” (3M INNOVATIVE PROPERTIES COMPANY, priority 2015, published 2018)", "tested_on": "C.sporogenes spores ATCC 3584", "experiment": "In-vitro removal of spores from Vitro-Skin (finger bag collection method)", "conditions": "Example 4", "source_text": "The in-vitro method was designed to evaluate the removal of microbes from skin using a synthetic skin material from the cosmetic industry, Vitro-skin from IMS inc, Portland MeThis method enables rapid screening of formulations for their propensity to promote release of microbes from skin and may be predictive of in-vivo activity.\nThe following materials were utilized. C.sporogenes spores ATCC 3584˜1.0×10̂8 CFU/ml; Triton-X 100 sampling buffer (pH 7.4) Filter Sterilized: 0.4 g KH2PO4, 10.1 g Na2HPO4, 1 g Triton-X 100, and 1 L dH2O; D/E neutralizing broth; Fingers from disposable polyethylene gloves (VWR 32915-268); Sterile dH2O (WFI quality water); 3M AC Petrifilm; and 5 ml Falcon tubes; 1.5 ml EPI Centrifuge tubes; Petri Dishes; Vitro-Skin IMS Inc.; and double-sided tape.\nThe method included the following. Punched-out specified number of Vitro-Skin samples using the ¾″ punch. Attached punch-out Vitro-Skin samples to a Petri-dish or any other sterile flat surface using double-sided tape. Contaminated the Vitro-Skin samples accordingly with 10μl of spores/spore prep (˜1×10̂6 CFU/Sample). Used the pipette tip to spread spores over the surface and used a new pipette tip for each sample. Allowed the samples to dry (˜40 minutes). […]\nFor best statistical data each test solution was repeated 3 times. […] Counted plates and analyzed data.", "data": [{"smiles": "N=C(NCCCCCCNC(=N)NC(=N)Nc1ccc(Cl)cc1)NC(=N)Nc1ccc(Cl)cc1.O=C(O)[C@H](O)[C@@H](O)[C@H](O)[C@H](O)CO.O=C(O)[C@H](O)[C@@H](O)[C@H](O)[C@H](O)CO", "note": "[CHG, Chlorhexidine gluconate]", "values": [{"measurement": "spore removal (in words)", "result": "poor spore removal"}]}]}
